Test results published in patent publication US20250032430A1, “USES OF RHODOQUINONE FOR THE TREATMENT OF DISEASE” (Whitehead Institute for Biomedical Research, priority 2021, published 2025).

How the values were obtained:
SDH complex [1] = target: T1, SDH complex (Homo sapiens, UniProt O14521+P21912+P31040+Q99643); test: SDH forward/reverse activity (succinate oxidation, fumarate reduction) by stable isotope tracing in cells; format: cell-based
T1 construct: endogenous in cells; host or cells: 143B cells (A5: live cells; A6: permeabilized mitochondria purified from them)
T1 sequence (P31040 43-664): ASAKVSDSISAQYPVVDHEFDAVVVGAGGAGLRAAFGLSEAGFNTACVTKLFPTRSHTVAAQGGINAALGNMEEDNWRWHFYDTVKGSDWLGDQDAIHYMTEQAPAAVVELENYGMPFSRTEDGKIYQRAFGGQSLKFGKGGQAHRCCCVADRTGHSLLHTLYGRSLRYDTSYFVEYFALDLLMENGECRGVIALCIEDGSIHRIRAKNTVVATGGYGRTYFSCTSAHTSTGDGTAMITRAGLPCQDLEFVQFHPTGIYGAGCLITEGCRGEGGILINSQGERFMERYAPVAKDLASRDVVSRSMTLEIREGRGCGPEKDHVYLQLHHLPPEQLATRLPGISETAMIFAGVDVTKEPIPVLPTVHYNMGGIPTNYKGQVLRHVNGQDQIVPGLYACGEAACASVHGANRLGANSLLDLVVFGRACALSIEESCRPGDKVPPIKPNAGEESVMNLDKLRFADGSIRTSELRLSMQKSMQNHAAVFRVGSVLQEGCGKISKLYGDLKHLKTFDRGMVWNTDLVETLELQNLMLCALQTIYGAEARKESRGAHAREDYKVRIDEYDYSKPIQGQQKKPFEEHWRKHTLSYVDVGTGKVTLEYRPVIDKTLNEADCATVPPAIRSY
T1 sequence (P21912 29-280): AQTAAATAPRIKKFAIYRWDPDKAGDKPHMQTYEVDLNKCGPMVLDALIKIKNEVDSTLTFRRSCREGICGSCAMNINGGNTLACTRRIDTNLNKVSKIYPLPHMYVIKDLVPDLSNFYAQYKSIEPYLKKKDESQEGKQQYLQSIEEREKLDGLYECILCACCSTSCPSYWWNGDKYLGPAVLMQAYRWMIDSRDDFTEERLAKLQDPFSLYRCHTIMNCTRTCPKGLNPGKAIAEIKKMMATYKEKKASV
T1 sequence (Q99643 30-169): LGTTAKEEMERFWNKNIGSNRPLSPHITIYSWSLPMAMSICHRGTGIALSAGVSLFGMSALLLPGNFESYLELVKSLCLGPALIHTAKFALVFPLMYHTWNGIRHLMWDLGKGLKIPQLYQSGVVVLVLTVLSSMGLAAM
T1 sequence (O14521 57-159): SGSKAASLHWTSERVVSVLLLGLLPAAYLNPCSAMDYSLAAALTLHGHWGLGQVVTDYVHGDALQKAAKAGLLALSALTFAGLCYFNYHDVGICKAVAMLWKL
Description: Fumarate reduction can be monitored in cells by the stable isotope tracing of either ^13C4-aspartate or ^13C5^15N2-glutamine. ^13C4-aspartate contributes to the fumarate pool via oxaloacetate and malate and so should lead to the production of ^13C4-succinate upon fumarate reduction (FIG. 2B). ^13C5^15N2-glutamine contributes to the fumarate pool through the reductive arm of the TCA cycle via glutamate, α-ketoglutarate, isocitrate, citrate, oxaloacetate, and malate. A key distinction between the two labeling approaches is that ^13C5^15N2-glutamine enriches the fumarate pool more upon antimycin treatment due to enhanced reductive carboxylation flux, whereas ^13C4-aspartate labels the fumarate pool to equivalent extents in vehicle and antimycin-treated cells (FIG. 2C). Therefore, with stable isotope tracing of ^13C4-aspartate, the level of ^13C4-succinate is a direct measure of fumarate reduction, whereas the stable isotope tracing of ^13C5^15N2-glutamine requires a ratiometric analysis of labeled succinate to labeled fumarate to normalize for differences in the extent of fumarate labeling.
To test if hypoxia triggers electron leakage onto fumarate or a net-reversal of the SDH complex, the ^13C5^15N2-glutamine tracer was utilized, which enables simultaneous quantification of the forward and reverse activities of SDH through the generation of unique isotopologues upon flux through the oxidative arm (α-ketoglutarate to succinate) compared to the reductive arm (α-ketoglutarate—via citrate—to fumarate) of the TCA cycle (FIG. 2E). In this assay, the forward (succinate oxidation) reaction was defined as the ratio of percent labeled ^13C4-fumarate to its precursor ^13C4-succinate (FIG. 2E) and the reverse (fumarate reduction) as that of percent labeled ^13C3-succinate to its precursor ^13C3-fumarate (FIG. 2E). This type of analysis can be performed when the labeling is in the steady-state, which was determined to be after 4-8 hours of incubation with ^13C5^15N2-glutamine (FIG. S2E-F). This ratiometric analysis of the succinate and fumarate isotopologues eliminates potential biases in the assay, such as higher ^13C3-fumarate labeling in antimycin-treated cells caused increased reductive carboxylation flux (FIG. S2E).
Stable isotope tracing in cells: Cells were seeded 24 hours prior to the experiment in 6-well dishes at 70% density. For stable isotope tracing of glutamine, glutamine-free DMEM (ThermoFisher) was supplemented with 2 mM ^13C5^15N2-glutamine (Sigma), 1 mM pyruvate, 5% FBS, 1% P/S, 0.1 mg/mL uridine. For stable isotope tracing of aspartate, DMEM containing 5% FBS, and 1% penicillin and streptomycin, and 0.1 mg/mL uridine (Sigma) was supplemented with the designated amount of 13C4-aspartate (Sigma) and the pH adjusted to 7.4. Uridine was left out of the media for stable isotope tracing experiments measuring nucleotide biosynthesis. Unless otherwise stated, for all experiments, cells were treated for 8 hours and metabolites were isolated as described below. Relevant compounds were added at the start of the incubation periods.

SDH complex [2] = test: SDH activity assay in permeabilized purified mitochondria; format: biochemical, human
Method: SDH activity was examined in permeabilized purified mitochondria. The rate of succinate oxidation was measured by monitoring fumarate production over time after initiating the reaction with succinate. The rate of fumarate reduction was measured in a separate assay by monitoring the rate of succinate production over time after initiating the reaction with fumarate and NADH. […] Moreover, complex I inhibition by piericidin suppressed the fumarate reduction caused by antimycin treatment (FIG. 2I).
Isolation of Mitochondria for Biochemical Assays: 143B cells were scraped and pelleted at 1000×g for 5 minutes. Cell pellets were washed in 1×PBS and pelleted at 1000×g for 5 minutes. For tissue samples, approximately 100 mg of tissue powder was weighed out. Tissue powder or cells were re-suspended in isolation buffer (200 mM sucrose, 10 mM Tris HCl, 1 mM EGTA/Tris, pH 7.4 (adjusted with 1M HEPES)), transferred into an ice-cold glass homogenizer (VWR), and dounced with 15-30 strokes. Homogenates were transferred into tubes and spun at 600×g for 10 minutes at 4° C. Supernatants were moved to a new tube and centrifugation was repeated. Then, supernatants were moved to a new tube and pelleted at 7,000×g for 10 minutes at 4° C. Pellets were washed in isolation buffer and centrifugation was repeated. Pellets were subsequently stored at −80° C. until use.
SDH Activity Assay: Purified mitochondria were re-suspended in buffer (0.22 M Mannitol, 0.075 M Sucrose, 1 mM EDTA, 10 mM HEPES pH 7.4, and one complete Protease inhibitor tablet (Sigma)) to a concentration of 5 mg/mL and underwent 5 freeze-thaw cycles to permeabilize them. 30 μg mitochondria (6 uL) were diluted 1:10 (in 54 uL) of SDH activity assay buffer (27.5 mM KH2PO4 pH 7.4, 1.1 mM CoQ-10 (Sigma), 3.5 g/L BSA). Reactions were supplemented with DMSO, 1 μM antimycin, or 1 μM piericidin and pre-incubated at 37° C. for 10 minutes. […] Samples were centrifuged at 16,000×g for 10 minutes at 4° C. and supernatants were dried down and analyzed by LC-MS for succinate and fumarate.

[3] = 13C5 15N2-glutamine tracing, 143B cells

Substance | fumarate reduction (SDH reverse activity) (SDH complex [1]; [3]) | succinate oxidation (SDH forward activity) (SDH complex [1]; [3]) | conversion of fumarate into succinate (13C4-succinate production, 13C4-aspartate tracing) (SDH complex [1]; WT 143B cells, 500 nM antimycin) | ratio of isotopologues: fumarate reduction over succinate oxidation (SDH complex [1]; antimycin treatment (also hypoxia exposure)) | fumarate reduction and succinate oxidation reactions (SDH complex [1]; cells lacking SDHA or SDHB) | rate of succinate oxidation versus fumarate reduction (vehicle: succinate oxidation higher) (SDH complex [2]; permeabilized purified mitochondria, 1 μM antimycin) | terminal electron acceptor use in the mammalian ETC (SDH complex [1]; rhodoquinone generated by RquA expression in cells) | fumarate reduction (succinate production over time) (SDH complex [2]; purified permeabilized mitochondria from WT and RquA-expressing cells, fumarate and NADH, absence of antimycin)
antimycin | increased | decreased | robustly stimulated | approximately 4 fold | not altered | the opposite was the case | – | –
rhodoquinone | – | – | – | – | – | – | promotes the use of fumarate as a terminal electron acceptor | sufficient to drive fumarate reduction
